Where two headings read alike, the source gives them in different places. Where a SMILES comes first, the peptide text is derived from it. Where no end group is shown, it is not given here. [ ]: non-standard residue; d: D form. The star is where a group is joined. Desaminotyrosyl = O=C(CCc1ccc(O)cc1)*; Cya = N[C@@H](CS(=O)(=O)O)C(=O)O; X1 = O=C(Cc1ccc(O)cc1)*
Tests used:
[1] = tested on: bovine anterior pituitary cell culture; type: cell-based; details: for potency (in words): summary of the bovine pituitary cell culture assays
meal-fed Holstein steers = assay: serum growth hormone (GH) response after intravenous injection in steers (Procedure B); type: in vivo; details: for relative growth hormone areas: in comparison to the standard bGRF(1-44)NH₂ (Area 100%), procedure B, second study; for serum growth hormone (GH) response, difference from Leu²⁷ bGRF(1-32)NH₂: compared with Leu²⁷ bGRF(1-32)NH₂; for area under the GH response curve: in comparison to bGRF(1-44)NH₂ (100%), first study
Text: The synthetic peptides prepared in Examples 1, 2 and 3 (Compounds 1, 2 and 3 respectively), bGRF(1-44)NH2 and […] bGRF(1-32)NH2 were also given to meal-fed Holstein steers by intravenous injection (Procedure B) and the serum growth hormone (GH) response evaluated. […] In comparison to bGRF(1-44)NH2 (100%), the area under the GH response curve was 122% for […] bGRF(1-32)NH2, 100% for Compound #1, 106% for Compound #2, and 111% for Compound #3. Holstein steers (265 +/- 5kg) were housed in individual stalls 18-20°C) and exposed to 16h light:8h darkness (lights on at 0400h). Steers are meal-fed once daily at 1000h and trained to consume their total daily feed intake in 2 h. The diet consisted of rolled corn plus a mineral/vitamin premix and alfalfa hay cubes fed at 160% maintenance energy requirements on a bodyweight basis. Steers gained approximately 0.75 kg/h/d. In a 5 x […] Latin Square design 10 steers were assigned randomly to receive the following treatments. (a) bGRF(1-44)NH2, (b) […] bGRF(1-32)NH2, (c) Compound #3, (d) Compound #1, and (e) Compound #2. The GRFs were dissolves in saline (10μg/ml) and administered at 3nM/100 kg bodyweight as single iv injection at 0800 h, 2 h between feeding. A cannula was inserted into a jugular vein at least one day before treatment. Blood (6 ml) was collected at 20-min interval from 40 min before until 120 min after injection with additional samples collected at 5, 10 and 15 min after injection. Serum obtained from the samples was assayed from GH concentration. The number of steers responding to injection fo the various GRFs tested (P=0.42) ranged from 9 of 10 to 10 of 10 depending on the treatment. Using procedure B, compounds were tested for growth hormone release in steers. In comparison to the standard bGRF(1-44)NH2 (Area 100%), the test compounds gave the following relative growth hormone areas: Compound 4, 233%; compound 5, 140%; compound 6, 160%; compound 7, 126%; compound 8, 307%; compound 9, 260%; and compound 11, 173%.

[2] = proteolytic stability in bovine plasma (HPLC, modified Frohman method); details: for remaining at 1 h: bovine plasma; for proteolytic stability in bovine plasma (in words): summary
[3] = first assay, potency as a fraction of bGRF(1-44)NH₂
[4] = subsequent assay, potency as a fraction of bGRF(1-44)NH₂
[5] = 3nM/100 kg bodyweight, single iv injection

| Molecule | remaining at 1 h [2] | the potency of bGRF(1-44)NH₂ [1] | relative growth hormone areas (meal-fed Holstein steers) | area under the GH response curve (meal-fed Holstein steers; [5]) | also measured |
| --- | --- | --- | --- | --- | --- |
| CC[C@H](C)[C@H](NC(=O)[C@H](C)NC(=O)[C@H](CS(=O)(=O)O)NC(=O)[C@H](C)NC(=O)[C@@H](N)Cc1ccc(O)cc1)C(=O)N[C@@H](Cc1ccccc1)C(=O)N[C@H](C(=O)N[C@@H](CC(N)=O)C(=O)N[C@@H](CO)C(=O)N[C@@H](Cc1ccc(O)cc1)C(=O)N[C@@H](CCCNC(=N)N)C(=O)N[C@@H](CCCCN)C(=O)N[C@H](C(=O)N[C@@H](CC(C)C)C(=O)NCC(=O)N[C@@H](CCC(N)=O)C(=O)N[C@@H](CC(C)C)C(=O)N[C@@H](CO)C(=O)N[C@@H](C)C(=O)N[C@@H](CCCNC(=N)N)C(=O)N[C@@H](CCCCN)C(=O)N[C@@H](CC(C)C)C(=O)N[C@@H](CC(C)C)C(=O)N[C@@H](CCC(N)=O)C(=O)N[C@@H](CC(=O)O)C(=O)N[C@H](C(=O)N[C@@H](CC(C)C)C(=O)N[C@@H](CC(N)=O)C(=O)N[C@@H](CCCNC(=N)N)C(=O)N[C@@H](CCC(N)=O)C(=O)N[C@@H](CCC(N)=O)C(=O)NCC(N)=O)[C@@H](C)CC)C(C)C)[C@@H](C)O [Compound 3, Cya³, Leu ²⁷bGRF(1-32)NH₂] (H-YA[Cya]AIFTNSYRKVLGQLSARKLLQDILNRQQG-NH2) | 42% | – | – | 111% | the potency of bGRF(1-44)NH₂ [1, 3]: 0.31; the potency of bGRF(1-44)NH₂ [1, 4]: 0.41; serum growth hormone (GH) response, difference from Leu²⁷ bGRF(1-32)NH₂ (meal-fed Holstein steers; [5]): No significant differences |
| CC[C@H](C)[C@H](NC(=O)[C@H](C)NC(=O)[C@H](CS(=O)(=O)O)NC(=O)[C@@H](C)NC(=O)[C@@H](N)Cc1ccc(O)cc1)C(=O)N[C@@H](Cc1ccccc1)C(=O)N[C@H](C(=O)N[C@@H](CC(N)=O)C(=O)N[C@@H](CO)C(=O)N[C@@H](Cc1ccc(O)cc1)C(=O)N[C@@H](CCCNC(=N)N)C(=O)N[C@@H](CCCCN)C(=O)N[C@H](C(=O)N[C@@H](CC(C)C)C(=O)NCC(=O)N[C@@H](CCC(N)=O)C(=O)N[C@@H](CC(C)C)C(=O)N[C@@H](CO)C(=O)N[C@@H](C)C(=O)N[C@@H](CCCNC(=N)N)C(=O)N[C@@H](CCCCN)C(=O)N[C@@H](CC(C)C)C(=O)N[C@@H](CC(C)C)C(=O)N[C@@H](CCC(N)=O)C(=O)N[C@@H](CC(=O)O)C(=O)N[C@H](C(=O)N[C@@H](CC(C)C)C(=O)N[C@@H](CC(N)=O)C(=O)N[C@@H](CCCNC(=N)N)C(=O)N[C@@H](CCC(N)=O)C(=O)N[C@@H](CCC(N)=O)C(=O)NCC(N)=O)[C@@H](C)CC)C(C)C)[C@@H](C)O [Compound 4, D-Ala², Cya³, Leu²⁷-bGRF(1-32)NH₂] (H-Y[dA][Cya]AIFTNSYRKVLGQLSARKLLQDILNRQQG-NH2) | 76% | 0.29 | 233% | – | – |
| Cya²⁵, Leu²⁷bGRF(1-32)NH₂ [Compound 1] | – | – | – | 100% | the potency of bGRF(1-44)NH₂ [1, 3]: 0.53; serum growth hormone (GH) response, difference from Leu²⁷ bGRF(1-32)NH₂ (meal-fed Holstein steers; [5]): No significant differences |

More lines, main results first:

| remaining at 1 h [2] | Molecule | the potency of bGRF(1-44)NH₂ [1] | relative growth hormone areas (meal-fed Holstein steers) | area under the GH response curve (meal-fed Holstein steers; [5]) | also measured |
| --- | --- | --- | --- | --- | --- |
| 95% | CC[C@H](C)[C@H](NC(=O)[C@H](C)NC(=O)[C@H](CS(=O)(=O)O)NC(=O)[C@@H](C)NC(=O)[C@@H](N)Cc1ccc(O)cc1)C(=O)N[C@@H](Cc1ccccc1)C(=O)N[C@H](C(=O)N[C@@H](CC(N)=O)C(=O)N[C@@H](CO)C(=O)N[C@@H](Cc1ccc(O)cc1)C(=O)N[C@@H](CCCNC(=N)N)C(=O)N[C@@H](CCCCN)C(=O)N[C@H](C(=O)N[C@@H](CC(C)C)C(=O)N[C@@H](C)C(=O)N[C@@H](CCC(N)=O)C(=O)N[C@@H](CC(C)C)C(=O)N[C@@H](CO)C(=O)N[C@@H](C)C(=O)N[C@@H](CCCNC(=N)N)C(=O)N[C@@H](CCCCN)C(=O)N[C@@H](CC(C)C)C(=O)N[C@@H](CC(C)C)C(=O)N[C@@H](CCC(N)=O)C(=O)N[C@@H](CC(=O)O)C(=O)N[C@H](C(=O)N[C@@H](CC(C)C)C(=O)N[C@@H](CC(N)=O)C(=O)N[C@@H](CCCNC(=N)N)C(=O)N[C@@H](CCC(N)=O)C(=O)N[C@@H](CCC(N)=O)C(=O)NCC(N)=O)[C@@H](C)CC)C(C)C)[C@@H](C)O [Compound 8, D-Ala², Cya³, Ala¹⁵, Leu²⁷-bGRF(1-32)NH₂] (H-Y[dA][Cya]AIFTNSYRKVLAQLSARKLLQDILNRQQG-NH2) | 1.34 | 307% | – | potency (in words) [1]: high potency; proteolytic stability in bovine plasma (in words) [2]: good stability |
| 47% | YADAIFTNSYRKVLGQLSARKLLQDILNRQQG-NH2 [Leu²⁷ bGRF(1-32)NH₂, reference compound] | – | – | 122% | serum growth hormone (GH) response, difference from bGRF(1-44)NH₂ (meal-fed Holstein steers; 3nM/100 kg bodyweight, single iv injection, compared with bGRF(1-44)NH₂): No significant differences |
| 69% | CC[C@H](C)[C@H](NC(=O)[C@H](C)NC(=O)[C@H](CS(=O)(=O)O)NC(=O)[C@@H](C)NC(=O)[C@@H](N)Cc1c[nH]cn1)C(=O)N[C@@H](Cc1ccccc1)C(=O)N[C@H](C(=O)N[C@@H](CC(N)=O)C(=O)N[C@@H](CO)C(=O)N[C@@H](Cc1ccc(O)cc1)C(=O)N[C@@H](CCCNC(=N)N)C(=O)N[C@@H](CCCCN)C(=O)N[C@H](C(=O)N[C@@H](CC(C)C)C(=O)NCC(=O)N[C@@H](CCC(N)=O)C(=O)N[C@@H](CC(C)C)C(=O)N[C@@H](CO)C(=O)N[C@@H](C)C(=O)N[C@@H](CCCNC(=N)N)C(=O)N[C@@H](CCCCN)C(=O)N[C@@H](CC(C)C)C(=O)N[C@@H](CC(C)C)C(=O)N[C@@H](CCC(N)=O)C(=O)N[C@@H](CC(=O)O)C(=O)N[C@H](C(=O)N[C@@H](CC(C)C)C(=O)N[C@@H](CC(N)=O)C(=O)N[C@@H](CCCNC(=N)N)C(=O)N[C@@H](CCC(N)=O)C(=O)N[C@@H](CCC(N)=O)C(=O)NCC(N)=O)[C@@H](C)CC)C(C)C)[C@@H](C)O [Compound 7, His¹, D-Ala², Cya³, Leu²⁷-bGRF(1-32)NH₂] (H-H[dA][Cya]AIFTNSYRKVLGQLSARKLLQDILNRQQG-NH2) | 0.06 | 126% | – | – |
| 81% | CC[C@H](C)[C@H](NC(=O)[C@H](C)NC(=O)[C@H](CS(=O)(=O)O)NC(=O)[C@H](C)NC(=O)CCc1ccc(O)cc1)C(=O)N[C@@H](Cc1ccccc1)C(=O)N[C@H](C(=O)N[C@@H](CC(N)=O)C(=O)N[C@@H](CO)C(=O)N[C@@H](Cc1ccc(O)cc1)C(=O)N[C@@H](CCCNC(=N)N)C(=O)N[C@@H](CCCCN)C(=O)N[C@H](C(=O)N[C@@H](CC(C)C)C(=O)N[C@@H](C)C(=O)N[C@@H](CCC(N)=O)C(=O)N[C@@H](CC(C)C)C(=O)N[C@@H](CO)C(=O)N[C@@H](C)C(=O)N[C@@H](CCCNC(=N)N)C(=O)N[C@@H](CCCCN)C(=O)N[C@@H](CC(C)C)C(=O)N[C@@H](CC(C)C)C(=O)N[C@@H](CCC(N)=O)C(=O)N[C@@H](CC(=O)O)C(=O)N[C@H](C(=O)N[C@@H](CC(C)C)C(=O)N[C@@H](CC(N)=O)C(=O)N[C@@H](CCCNC(=N)N)C(=O)N[C@@H](CCC(N)=O)C(=O)N[C@@H](CCC(N)=O)C(=O)NCC(N)=O)[C@@H](C)CC)C(C)C)[C@@H](C)O [Compound 9, Desamino-Tyr¹, Cya³, Ala¹⁵, Leu²⁷-bGRF(1-32)NH₂] (Desaminotyrosyl-A[Cya]AIFTNSYRKVLAQLSARKLLQDILNRQQG-NH2) | – | 260% | – | the potency of bGRF(1-44)NH₂ [1, 4]: 2.24; potency (in words) [1]: high potency; proteolytic stability in bovine plasma (in words) [2]: good stability |
| 65% | CC[C@H](C)[C@H](NC(=O)[C@H](C)NC(=O)[C@H](CC(=O)O)NC(=O)[C@H](C)NC(=O)Cc1ccc(O)cc1)C(=O)N[C@@H](Cc1ccccc1)C(=O)N[C@H](C(=O)N[C@@H](CO)C(=O)N[C@@H](CO)C(=O)N[C@@H](Cc1ccc(O)cc1)C(=O)N[C@@H](CCCNC(=N)N)C(=O)N[C@@H](CCCNC(=N)N)C(=O)N[C@H](C(=O)N[C@@H](CC(C)C)C(=O)N[C@@H](C)C(=O)N[C@@H](CCC(N)=O)C(=O)N[C@@H](CC(C)C)C(=O)N[C@@H](CO)C(=O)N[C@@H](C)C(=O)N[C@@H](CCCNC(=N)N)C(=O)N[C@@H](CCCNC(=N)N)C(=O)N[C@@H](CC(C)C)C(=O)N[C@@H](CC(C)C)C(=O)N[C@@H](CCC(N)=O)C(=O)N[C@@H](CS(=O)(=O)O)C(=O)N[C@H](C(=O)N[C@@H](CC(C)C)C(=O)N[C@@H](CO)C(=O)N[C@@H](CCCNC(=N)N)C(=O)N[C@@H](CCC(N)=O)C(=O)N[C@@H](CCC(N)=O)C(=O)NCC(N)=O)[C@@H](C)CC)C(C)C)[C@@H](C)O [Compound 15, Desamino PHPG¹, Ser⁸, Arg¹², Ala¹⁵, Cya²⁵, Leu²⁷, Ser²⁸, bGRF(1-32)NH₂] (X1-ADAIFTSSYRRVLAQLSARRLLQ[Cya]ILSRQQG-NH2) | – | – | – | the potency of bGRF(1-44)NH₂ ([1]; another assay, potency as a fraction of bGRF(1-44)NH₂): 0.97 |

— patent publication EP0326418A1, “GRF analogs” (THE UPJOHN COMPANY, priority 1988, dated 1989)
